Like-named read-outs stand apart in the source and are kept apart here.

From US10105357B2, “Indication of antibiotic drugs for preparation of cancer inhibition pharmaceutical composition” (LAUNX BIOMEDICAL CO., LTD., priority 2014, dated 2018) come the findings set out here.

Assay [1] relates to cancer cell lines. Nature of the assay: Cell viability analysis (WST-1) on cancer cell lines. It is filed as cell-based, human. To be noted: drug 10 μM, 72 hours, WST-1; Table 3. Background: Tetrazolium dyes change colour on reduction, which living cells bring about.
Assay [2] has as its system HI650 (Lung Adenocarcinoma). Put plainly: Cell viability analysis, lung cancer HI650. Format: cell-based, human. Conditions: Homo sapiens, NCI-H1650, 72 h.
Assay [3] relates to A549 (Lung Adenocarcinoma). Put plainly: Cell viability analysis, lung cancer A549. Format: cell-based, human. Conditions: Homo sapiens, A549, 72 h.
Assay [4] concerns AGS (Gastric Adenocarcinoma). Nature of the assay: Cell viability analysis, gastric cancer AGS. To be noted: Homo sapiens, 72 h. Format: cell-based, human.
The subject of assay [5] is MKN-45 (Gastric Adenocarcinoma). Nature of the assay: Cell viability analysis, gastric cancer MKN-45. Conditions: Homo sapiens, MKN-45, 72 h. It is filed as cell-based, human.
Assay [6] has as its system HepG2 (Hepatocellular Carcinoma). Put plainly: Cell viability analysis, hepatic cancer HepG2. It is filed as cell-based, human. Conditions: Homo sapiens, HepG2, 72 h.
Assay [7] concerns LoVo (Colorectal Adenocarcinoma). Nature of the assay: Cell viability analysis, colon cancer LoVo. It is filed as cell-based, human. Conditions: Homo sapiens, LoVo, 72 h.
Assay [8] deals with A375 (Amelanotic Melanoma). Put plainly: Cell viability analysis, skin cancer A375. It is filed as cell-based, human. Conditions: Homo sapiens, A-375, 72 h.
Assay [9] relates to HeLa (Cervix Adenocarcinoma). Nature of the assay: Cell viability analysis, cervical cancer HeLa. Format: cell-based, human. Conditions: Homo sapiens, HeLa, 72 h.
The subject of assay [10] is PC3 (p53−) (Prostate Adenocarcinoma). Nature of the assay: Cell viability analysis, prostate cancer PC3. Format: cell-based, human. To be noted: Homo sapiens, 72 h.
Assay [11] concerns TSGH-8301 (Urinary Bladder Carcinoma). Put plainly: Cell viability analysis, bladder cancer TSGH-8301. Format: cell-based, human. To be noted: Homo sapiens, 72 h.
The test system of assay [12] is MCF7 (Mammary Gland, Adenocarcinoma). Put plainly: Cell viability analysis, breast cancer MCF7. Conditions: Homo sapiens, MCF7, 72 h. Format: cell-based, human.
The subject of assay [13] is HL-60 (Acute Promyelocytic Leukemia). Nature of the assay: Cell viability analysis, leukemia HL-60. Format: cell-based, human. To be noted: Homo sapiens, HL-60, 72 h.
In assay [14] the test system is HCT116 (p53+) (Colorectal Carcinoma). Nature of the assay: cells. To be noted: Homo sapiens, HCT-116, 72 h, read-out: cell viability (survival rate), HCT116.

For orientation: viability means a read-out of living cells in per cent, often relative to untreated cells. On to `CCn1cc(C(=O)O)c(=O)c2cnc(N3CCCC3)nc21` [Piromidic Acid], for which, in [1], the “inhibition effect on different cancer cell lines” value is recorded as “significant inhibition effect”. The viability at 10 µM in assay [2] (read-out: cell viability (survival rate), H1650, drug 10 μM, 72 hours, WST-1, OD450 nm) was determined as 67.2%; in [3] (read-out: cell viability (survival rate), A549, drug 10 μM, 72 hours, WST-1, OD450 nm) it was 80.5%; in assay [4] (read-out: cell viability (survival rate), AGS, drug 10 μM, 72 hours, WST-1, OD450 nm), 85.9%; in [5] (read-out: cell viability (survival rate), MKN-45, drug 10 μM, 72 hours, WST-1, OD450 nm), 100%; in assay [6] (read-out: cell viability (survival rate), HepG2, drug 10 μM, 72 hours, WST-1, OD450 nm), 73.8%; in assay [7] (read-out: cell viability (survival rate), LoVo, drug 10 μM, 72 hours, WST-1, OD450 nm), 95.2%. Besides, the viability at 10 µM in [8] (read-out: cell viability (survival rate), A375, drug 10 μM, 72 hours, WST-1, OD450 nm) was found to be 86.7%; in [9] (read-out: cell viability (survival rate), HeLa, drug 10 μM, 72 hours, WST-1, OD450 nm) it was 95.5%; in [10] (read-out: cell viability (survival rate), PC3, drug 10 μM, 72 hours, WST-1, OD450 nm), 107%; in assay [11] (read-out: cell viability (survival rate), TSGH, drug 10 μM, 72 hours, WST-1, OD450 nm), 90.5%; in assay [12] (read-out: cell viability (survival rate), MCF7, drug 10 μM, 72 hours, WST-1, OD450 nm), 99.5%; in assay [13] (read-out: cell viability (survival rate), HL-60, drug 10 μM, 72 hours, WST-1, OD450 nm), 95.2%. For the same compound, the viability at 10 µM in assay [14] stood at 89.8%.

Take `O=C([O-])c1ccccc1O.[Na+]` [Sodium salicylate]: in assay [1], the “inhibition effect on different cancer cell lines” value was “significant inhibition effect”. The viability at 10 µM in [2] (read-out: cell viability (survival rate), H1650) stood at 90.1%; in [3] (read-out: cell viability (survival rate), A549), 107%; in assay [4] (read-out: cell viability (survival rate), AGS), 82.1%; in assay [5] (read-out: cell viability (survival rate), MKN-45), 77.9%; in [6] (read-out: cell viability (survival rate), HepG2), 84.3%; in [7] (read-out: cell viability (survival rate), LoVo), 102%. For the same compound, the viability at 10 µM is 74.9% in assay [8] (read-out: cell viability (survival rate), A375); 94.4% in assay [9] (read-out: cell viability (survival rate), HeLa); 87.9% in assay [10] (read-out: cell viability (survival rate), PC3); 137% in assay [11] (read-out: cell viability (survival rate), TSGH); 89% in assay [12] (read-out: cell viability (survival rate), MCF7); 94.7% in assay [13] (read-out: cell viability (survival rate), HL-60). For the same compound, in assay [14], the viability at 10 µM was 73.5%.
